In patent US20080306230A1, “Composition and Associated Method” (GENERAL ELECTRIC COMPANY, priority 2007, published 2008):

Experiment: Solubility of the product as observed
Type: physicochemical
Settings: in words; water or methanol
Experimental: 5-norbornene-2-methanol (CAS 95-12-5, 1 gram) and sodium hydride (NaH, 60% dispersion in mineral oil, 0.6 grams) are dissolved in 50 milliliters of anhydrous THF. The mixture is refluxed overnight at 80 degrees C. After refluxing, 1,3-propane sultone (CAS 1120-71-4, 0.98 grams) in 20 milliliters of THF is added to the mixture in 10 minutes. After 5 hours, the solvent is removed by rotary evaporation and the reaction product is purified by column chromatography using silica and ethyl acetate/methanol (4:1) as eluent. […] The product yield is about 60 weight percent.
A ruthenium metal complex 1,3-bis(2,4,6-trimethylphenyl)-2-imidazolidinylidene)dichloro(phenylmethylene)(tricyclohexylphosphine)ruthenium (CAS No. 246047-72-3, 5 milligrams) is charged in a HPLC flask and the flask is degassed and purged with argon three times. Methylene chloride (CH2Cl2, 50 microliters) is injected into the flask using a syringe. The metal complex solution is cooled at −78 degrees Celsius in a dry ice and acetone bath. Norbornene sulfonate (10 milligrams, Sample 1 from Example 1) is charged into a second flask and degassed and the flask is backfilled with argon three times. Degassed methanol (500 microliters) is added to norbornene sulfonate using a syringe. The resulting mixture is also cooled at −78 degrees Celsius. […]

O=S(=O)([O-])C1CC2C=CC1C2.[Na+] (stereo not shown) [Sample 1, norbornene-sodium sulfonate]
solubility: soluble in water or methanol
